US11491155B2, “Salt of a pyrimido[6,1-A]isoquinolin-4-one compound” (VERONA PHARMA PLC, priority 2015, dated 2022)
Counter-ions that a name gives are not always drawn.

Legend:
[1] = Aerosol performance of DPI formulations (Cyclohaler, NGI); format: physicochemical; details: for †Measured Mass of 1% w/w Blend Delivered per capsule / ††RPL554 Emitted (μg) per capsule (B): Cyclohaler; for †Measured Mass of 1% w/w Blend Delivered per capsule: 5 capsules containing 20 mg powder blend, mass from weight change of capsule-loaded device; for ††RPL554 Emitted (μg) per capsule (B): NGI, mass determined from HPLC analysis of recovered samples; for ††RPL554 Emitted (μg) per capsule (B) / Calculated RPL554 Content (μg) per capsule (A): as RPL554 base; for Calculated RPL554 Content (μg) per capsule (A): calculated from delivered blend mass and measured blend content
Procedure, shortened: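 Capsules held 20 mg of 1% w/w RPL554 free base or salt:lactose blend (200 μg salt, not adjusted for molecular weight). Fired from Cyclohaler at 90 L/min for 2.7 s into NGI with pre-separator, 5 capsules per formulation; drug recovered from device, induction port and stages to derive ED, FPD, FPF.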

[2] = Primary particle size analysis by laser light diffraction (Mastersizer 2000); format: physicochemical; details: micronised, mean n=3
Procedure: A Mastersizer 2000 fitted with a Scirocco 2000 dry powder dispersion unit (Malvern Instruments Ltd, UK) was used to analyse the primary particle size of the micronised RPL554 and salt variants. The salts (50 mg) were automatically sampled via a vibrating feed control at a feeder rate of 60% and dispersed in compressed air at a pressure of 3 bar.

[3] = Physico-chemical characteristics of salt candidates: solubility in water, pH of aqueous suspension/solution, form post water maturation
Procedure: The physico-chemical characteristics of the salt candidates were determined.

[4] = Solubility of RPL554 and salts in pMDI propellant systems; format: physicochemical
Procedure, shortened: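 Ten actuations from each pMDI, three replicates per formulation, were filtered through a 0.20 μm filter into a vial cooled in dry ice/acetone, with about 10 s shaking between shots. The filtrate was evaporated to dryness, the residue recovered in 1 mL recovery solution and quantified by HPLC. The percent solubilised was taken against the starting RPL554 mass in the canister, computed from theoretical molecular weights of free base and salts.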

[5] = RPL554 content and content uniformity of 1% w/w lactose powder blends; format: physicochemical; details: for Measured Blend Content (% Theoretical): 1% w/w RPL554 variant: lactose powder blend, expressed as RPL554 base; for **Adjusted RPL554 Content per capsule: per 20 mg capsule of 1% w/w lactose blend, adjusted for measured blend content (% theoretical), as RPL554 base
Procedure, shortened: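 RPL554 free base or salt was sieved (38 μm) with some lactose, mortar-mixed with the rest, and Turbula-blended for 10 min at 46 rpm to give 1% w/w blends. For uniformity, ~20 mg samples from each blend were diluted to 10 mL, sonicated for 3 min and assayed by HPLC.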

[6] = Solubility of RPL554 salts in saline solutions, water and aqueous buffer solutions at 25° C. (HPLC); format: physicochemical; details: for Solubility as RPL554 (mg/ml) in 0.7 w/w % Saline / Solubility as RPL554 (mg/ml) in 0.9 w/w % Saline / Solubility as RPL554 (mg/ml) in 1.1 w/w % Saline / Solubility as RPL554 (mg/ml) in Water: 24 hours; for Solubility as RPL554 (mg/ml) in Water: deionised water
Procedure, shortened: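 Salts or free base (ca 50 mg) suspended in 1 ml of buffered 0.9% saline (pH 3.5–6.5), 0.7–1.1% saline or deionised water, agitated 24 h at 25° C. Filtrates analysed by HPLC with single-point calibration; solubility expressed as RPL554 free base, not salt.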

[7] = in HFA 134 with Ethanol/Tween, hydrochloride
[8] = HFA 227: 10% Ethanol: 0.1% Tween
[9] = in HFA 134, listed as Ethane-1,2-disulfonate hemi-salt
[10] = in HFA 134 with Ethanol/Tween, listed as Ethane-1,2-disulfonate hemi-salt

COc1cc2c(cc1OC)-c1c/c(=N\c3c(C)cc(C)cc3C)n(CCNC(N)=O)c(=O)n1CC2 [Hydrochloride, RPL554 hydrochloride]
†Measured Mass of 1% w/w Blend Delivered per capsule ([1]; hydrochloride): 20.14 mg
††RPL554 Emitted (μg) per capsule (B) ([1]; hydrochloride): 102.27 µg
Calculated RPL554 Content (μg) per capsule (A) ([1]; hydrochloride): 157.96 µg
D (0.1) (μm) ([2]; hydrochloride): 0.53 μm
D (0.5) (μm) ([2]; hydrochloride): 1.37 μm
D (0.9) (μm) ([2]; hydrochloride): 3.47 μm
pH of aqueous suspension/solution ([3]; listed as Hydrochloric anhydrous source, hydrochloride): 3.68
pH of aqueous suspension/solution ([3]; listed as Hydrochloric aqueous source, hydrochloride): 3.84
Solubility RPL554 (μg/g) ([4]; in HFA 134, BLQ = below limit of quantitation (0.06 μg/mL), hydrochloride): BLQ
Calculated RPL554 solubilised (%) ([4]; in HFA 134, hydrochloride): BLQ
Calculated Solubilised RPL554 μg per 50 μL actuation ([4]; in HFA 134, hydrochloride): BLQ
Estimated RPL554 solubilised (%) [4, 7]: 5.27%
Estimated Solubilised RPL554 μg per 50 μL actuation [4, 7]: 9.79 µg
Solubility RPL554 [4, 7]: 149.17 µg/g
Calculated RPL554 solubilised (%) ([4]; in HFA 227): BLQ
Calculated Solubilised RPL554 μg per 50 μL actuation ([4]; in HFA 227): BLQ
Solubility RPL554 (μg/g) ([4]; in HFA 227): BLQ
Measured Blend Content (% Theoretical) ([5]; hydrochloride): 84.42 % Theoretical
**Adjusted RPL554 Content per capsule ([5]; hydrochloride): 156.86 µg
Solubility as RPL554 (mg/ml) in 0.7 w/w % Saline ([6]; hydrochloride): 2.85 mg/mL
Solubility as RPL554 (mg/ml) in 0.9 w/w % Saline ([6]; hydrochloride): 1.93 mg/mL
Solubility as RPL554 (mg/ml) in 1.1 w/w % Saline ([6]; hydrochloride): 2.48 mg/mL
Solubility as RPL554 (mg/ml) in Water ([6]; hydrochloride): 12.66 mg/mL
solubility at 24 h ([6]; phosphate buffer in 0.9% w/w saline, 25 °C, pH 6.5, aqueous buffer, thermodynamic from solid, in saline 0.9% w/w, read-out: Solubility as RPL554 (mg/ml) in buffer solution pH 6.5, Phosphate): 0.02 mg/mL

COc1cc2c(cc1OC)-c1c/c(=N\c3c(C)cc(C)cc3C)n(CCNC(N)=O)c(=O)n1CC2 [Ethane-1,2-disulfonate, RPL554 ethane-1,2-disulfonate]
†Measured Mass of 1% w/w Blend Delivered per capsule [1]: 19.90 mg
††RPL554 Emitted (μg) per capsule (B) [1]: 87.91 µg
Calculated RPL554 Content (μg) per capsule (A) [1]: 133.06 µg
D (0.1) (μm) [2]: 0.52 μm
D (0.5) (μm) [2]: 1.25 μm
D (0.9) (μm) [2]: 2.78 μm
pH of aqueous suspension/solution ([3]; listed as Ethane-1,2-disulfonic): 3.72
Estimated Solubilised RPL554 μg per 50 μL actuation [4, 8]: 0.11 µg
Solubility RPL554 [4, 8]: 1.69 µg/g
Estimated RPL554 solubilised (%) ([4]; HFA 227: 10% Ethanol: 0.1% Tween, listed as Ethane-1,2-disulfonate hemi-salt): 0.07%
Solubility RPL554 (μg/g) ([4]; in HFA 134, BLQ = below limit of quantitation (0.06 μg/mL), listed as Ethane-1,2-disulfonate hemi-salt): BLQ
Calculated RPL554 solubilised (%) [4, 9]: BLQ
Calculated Solubilised RPL554 μg per 50 μL actuation [4, 9]: BLQ
Solubility RPL554 ([4]; in HFA 134 with Ethanol/Tween): 5 µg/g
Estimated RPL554 solubilised (%) [4, 10]: 0.20%
Estimated Solubilised RPL554 μg per 50 μL actuation [4, 10]: 0.34 µg
Solubility RPL554 [4, 10]: 5.13 µg/g
Calculated RPL554 solubilised (%) ([4]; in HFA 227): BLQ
Calculated Solubilised RPL554 μg per 50 μL actuation ([4]; in HFA 227): BLQ
Solubility RPL554 (μg/g) ([4]; in HFA 227): BLQ
Measured Blend Content (% Theoretical) [5]: 80.18 % Theoretical
**Adjusted RPL554 Content per capsule [5]: 133.73 µg
Solubility as RPL554 (mg/ml) in 0.7 w/w % Saline [6]: 4.79 mg/mL

COc1cc2c(cc1OC)-c1c/c(=N\c3c(C)cc(C)cc3C)n(CCNC(N)=O)c(=O)n1CC2 [Sulfate, RPL554 sulfate]
†Measured Mass of 1% w/w Blend Delivered per capsule [1]: 19.78 mg
††RPL554 Emitted (μg) per capsule (B) [1]: 79.35 µg
Calculated RPL554 Content (μg) per capsule (A) [1]: 120.61 µg
D (0.1) (μm) [2]: 0.51 μm
D (0.5) (μm) [2]: 1.12 μm
D (0.9) (μm) [2]: 2.30 μm
pH of aqueous suspension/solution ([3]; listed as Sulfuric - aqueous solution): 1.87
Calculated RPL554 solubilised (%) ([4]; in HFA 134): BLQ
Calculated Solubilised RPL554 μg per 50 μL actuation ([4]; in HFA 134): BLQ
Solubility RPL554 (μg/g) ([4]; in HFA 134, BLQ = below limit of quantitation (0.06 μg/mL)): BLQ
Estimated RPL554 solubilised (%) ([4]; in HFA 134 with Ethanol/Tween): 2.84%
Estimated Solubilised RPL554 μg per 50 μL actuation ([4]; in HFA 134 with Ethanol/Tween): 4.71 µg
Solubility RPL554 ([4]; in HFA 134 with Ethanol/Tween): 73.19 µg/g
Calculated RPL554 solubilised (%) ([4]; in HFA 227): BLQ
Calculated Solubilised RPL554 μg per 50 μL actuation ([4]; in HFA 227): BLQ
Solubility RPL554 (μg/g) ([4]; in HFA 227): BLQ
Measured Blend Content (% Theoretical) [5]: 73.50 % Theoretical
**Adjusted RPL554 Content per capsule [5]: 121.95 µg
Solubility as RPL554 (mg/ml) in 0.7 w/w % Saline [6]: 2.78 mg/mL
Solubility as RPL554 (mg/ml) in 0.9 w/w % Saline [6]: 1.94 mg/mL
Solubility as RPL554 (mg/ml) in 1.1 w/w % Saline [6]: 1.35 mg/mL
Solubility as RPL554 (mg/ml) in Water [6]: 12.11 mg/mL
